Measured values reported in ChEMBL document CHEMBL1275550, “In vitro activity of doripenem, a carbapenem for the treatment of challenging infections caused by gram-negative bacteria, against recent clinical isolates from the United States” (2008).
In brackets after ≈: the same amount, converted by molar mass.

Columns and labels:
Citrobacter [1] = assay: Antimicrobial activity against Citrobacter with derepressed AmpC beta-lactamsae by broth microdilution method; assay type: functional
Serratia marcescens [2] = assay: Antimicrobial activity against Ceftazidime susceptible Serratia marcescens assessed as intermediate isolate by broth microdilution method; assay type: functional
Proteus mirabilis [3] = assay: Antimicrobial activity against Non-ESBL Proteus mirabilis assessed as resistant isolate by broth microdilution method; assay type: functional
Proteus mirabilis [4] = assay: Antimicrobial activity against ESBL producing Proteus mirabilis assessed as susceptible isolate by broth microdilution method; assay type: functional
Citrobacter [5] = assay: Antimicrobial activity against Citrobacter with nonderepressed AmpC beta-lactamsae assessed as intermediate isolate by broth microdilution method; assay type: functional
Citrobacter [6] = assay: Antimicrobial activity against Citrobacter with nonderepressed AmpC beta-lactamsae assessed as susceptible isolate by broth microdilution method; assay type: functional
Acinetobacter [7] = assay: Antimicrobial activity against imipenem non-susceptible Acinetobacter assessed as intermediate isolate by broth microdilution method; assay type: functional
Serratia marcescens [8] = assay: Antimicrobial activity against Ceftazidime susceptible Serratia marcescens by broth microdilution method; assay type: functional
Acinetobacter [9] = assay: Antimicrobial activity against imipenem susceptible Acinetobacter assessed as susceptible isolate by broth microdilution method; assay type: functional
Pseudomonas aeruginosa [10] = assay: Antimicrobial activity against imipenem non-susceptible Pseudomonas aeruginosa assessed as intermediate isolate by broth microdilution method; assay type: functional
Klebsiella pneumoniae [11] = assay: Antimicrobial activity against ESBL producing Klebsiella pneumoniae assessed as intermediate isolate by broth microdilution method; assay type: functional
Proteus mirabilis [12] = assay: Antimicrobial activity against Non-ESBL Proteus mirabilis assessed as intermediate isolate by broth microdilution method; assay type: functional
Pseudomonas aeruginosa [13] = assay: Antimicrobial activity against imipenem susceptible Pseudomonas aeruginosa assessed as susceptible isolate by broth microdilution method; assay type: functional
Pseudomonas aeruginosa [14] = assay: Antimicrobial activity against Ceftazidime susceptible Pseudomonas aeruginosa assessed as susceptible isolate by broth microdilution method; assay type: functional
Klebsiella pneumoniae [15] = assay: Antimicrobial activity against ESBL producing Klebsiella pneumoniae assessed as resistant isolate by broth microdilution method; assay type: functional
Serratia marcescens [16] = assay: Antimicrobial activity against Ceftazidime susceptible Serratia marcescens assessed as susceptible isolate by broth microdilution method; assay type: functional
Pseudomonas aeruginosa [17] = assay: Antimicrobial activity against Ceftazidime non-susceptible Pseudomonas aeruginosa by broth microdilution method; assay type: functional
Enterobacter cloacae [18] = assay: Antimicrobial activity against Enterobacter cloacae with nonderepressed AmpC beta-lactamsae assessed as intermediate isolate by broth microdilution method; assay type: functional
Serratia marcescens [19] = assay: Antimicrobial activity against Ceftazidime non-susceptible Serratia marcescens by broth microdilution method; assay type: functional
Enterobacter cloacae [20] = assay: Antimicrobial activity against Enterobacter cloacae with derepressed AmpC beta-lactamsae by broth microdilution method; assay type: functional
Pseudomonas aeruginosa [21] = assay: Antimicrobial activity against Pseudomonas aeruginosa isolated from ICU patient assessed as intermediate isolate by broth microdilution method
Enterobacter cloacae [22] = assay: Antimicrobial activity against Enterobacter cloacae with derepressed AmpC beta-lactamsae assessed as intermediate isolate by broth microdilution method; assay type: functional
Pseudomonas aeruginosa [23] = assay: Antimicrobial activity against Pseudomonas aeruginosa isolated from ICU patient assessed as resistant isolate by broth microdilution method
Klebsiella pneumoniae [24] = assay: Antimicrobial activity against ESBL producing Klebsiella pneumoniae assessed as susceptible isolate by broth microdilution method; assay type: functional
Acinetobacter [25] = assay: Antimicrobial activity against imipenem non-susceptible Acinetobacter assessed as susceptible isolate by broth microdilution method; assay type: functional
Escherichia coli [26] = assay: Antimicrobial activity against ESBL producing Escherichia coli assessed as susceptible isolate by broth microdilution method; assay type: functional
Serratia marcescens [27] = assay: Antimicrobial activity against Ceftazidime non-susceptible Serratia marcescens assessed as susceptible isolate by broth microdilution method; assay type: functional
Pseudomonas aeruginosa [28] = assay: Antimicrobial activity against Ceftazidime non-susceptible Pseudomonas aeruginosa assessed as resistant isolate by broth microdilution method; assay type: functional
Pseudomonas aeruginosa [29] = assay: Antimicrobial activity against Ceftazidime non-susceptible Pseudomonas aeruginosa assessed as intermediate isolate by broth microdilution method; assay type: functional
Pseudomonas aeruginosa [30] = assay: Antimicrobial activity against imipenem susceptible Pseudomonas aeruginosa by broth microdilution method; assay type: functional
Enterobacter cloacae [31] = assay: Antimicrobial activity against Enterobacter cloacae with derepressed AmpC beta-lactamsae assessed as susceptible isolate by broth microdilution method; assay type: functional
Enterobacteriaceae [32] = assay: Antimicrobial activity against ceftazidime-susceptible Enterobacteriaceae by broth microdilution method; assay type: functional
Citrobacter [33] = assay: Antimicrobial activity against Citrobacter with derepressed AmpC beta-lactamsae assessed as intermediate isolate by broth microdilution method; assay type: functional
Escherichia coli [34] = assay: Antimicrobial activity against ESBL producing Escherichia coli by broth microdilution method; assay type: functional
Pseudomonas aeruginosa [35] = assay: Antimicrobial activity against Ceftazidime non-susceptible Pseudomonas aeruginosa assessed as susceptible isolate by broth microdilution method; assay type: functional
Pseudomonas aeruginosa [36] = assay: Antimicrobial activity against imipenem non-susceptible Pseudomonas aeruginosa assessed as resistant isolate by broth microdilution method; assay type: functional
Acinetobacter [37] = assay: Antimicrobial activity against imipenem susceptible Acinetobacter assessed as intermediate isolate by broth microdilution method; assay type: functional
Enterobacteriaceae [38] = assay: Antimicrobial activity against ceftazidime-susceptible Enterobacteriaceae assessed as resistant isolate by broth microdilution method; assay type: functional
Enterobacteriaceae [39] = assay: Antimicrobial activity against Ceftazidime non-susceptible Enterobacteriaceae assessed as intermediate isolate by broth microdilution method; assay type: functional
Staphylococcus aureus = assay: Antimicrobial activity against methicillin-resistant Staphylococcus aureus by broth microdilution method; assay type: functional
Acinetobacter [40] = assay: Antimicrobial activity against Acinetobacter by broth microdilution method; assay type: functional
Klebsiella pneumoniae [41] = assay: Antimicrobial activity against Klebsiella pneumoniae by broth microdilution method; assay type: functional
Streptococcus pneumoniae = assay: Antimicrobial activity against penicillin-resistant Streptococcus pneumoniae by broth microdilution method; assay type: functional; details: Streptococcus pneumoniae
Staphylococcus = assay: Antimicrobial activity against methicillin-susceptible coagulase-negative Staphylococcus by broth microdilution method; assay type: functional; details: Staphylococcus
Escherichia coli [42] = assay: Antimicrobial activity against Escherichia coli by broth microdilution method; assay type: functional
Enterobacter cloacae [43] = assay: Antimicrobial activity against Enterobacter cloacae assessed as susceptible isolate by broth microdilution method; assay type: functional

CC(C)(O/N=C(\C(=O)N[C@@H]1C(=O)N2C(C(=O)[O-])=C(C[n+]3ccccc3)CS[C@H]12)c1csc(N)n1)C(=O)O [CEFTAZIDIME]
MIC (Citrobacter [1]): > 32 µg/mL | MIC50 (Citrobacter [1]): > 32 µg/mL | MIC90 (Citrobacter [1]): > 32 µg/mL | Activity (Serratia marcescens [2]): 0% | Activity (Proteus mirabilis [3]): 0.3% | Activity (Proteus mirabilis [4]): 50% | Activity (Citrobacter [5]): 0.4% | Activity (Citrobacter [6]): 98.3% | Activity (Acinetobacter [7]): 0% | MIC50 (Serratia marcescens [8]): 0.12 µg/mL (≈ 0.22 µM) | MIC90 (Serratia marcescens [8]): 0.5 µg/mL (≈ 0.915 µM) | Activity (Acinetobacter [9]): 66.8% | Activity (Pseudomonas aeruginosa [10]): 5.3% | Activity (Klebsiella pneumoniae [11]): 0% | Activity (Proteus mirabilis [12]): 0.2% | Activity (Pseudomonas aeruginosa [13]): 90.9% | Activity (Pseudomonas aeruginosa [14]): 100% | Activity (Klebsiella pneumoniae [15]): 95.5% | Activity (Serratia marcescens [16]): 100% | MIC50 (Pseudomonas aeruginosa [17]): 32 µg/mL (≈ 58.5 µM) | MIC90 (Pseudomonas aeruginosa [17]): > 32 µg/mL | Activity (Enterobacter cloacae [18]): 0.7% | MIC (Serratia marcescens [19]): > 32 µg/mL | MIC50 (Serratia marcescens [19]): > 32 µg/mL | MIC90 (Serratia marcescens [19]): > 32 µg/mL | MIC50 (Enterobacter cloacae [20]): > 32 µg/mL | MIC90 (Enterobacter cloacae [20]): > 32 µg/mL | Activity (Pseudomonas aeruginosa [21]): 5.8% | Activity (Enterobacter cloacae [22]): 1.9% | Activity (Pseudomonas aeruginosa [23]): 14.4% | Activity (Klebsiella pneumoniae [24]): 4.5% | Activity (Acinetobacter [25]): 15.7% | Activity (Escherichia coli [26]): 33.3% | Activity (Serratia marcescens [27]): 0% | Activity (Pseudomonas aeruginosa [28]): 76.4% | Activity (Pseudomonas aeruginosa [29]): 23.6% | MIC50 (Pseudomonas aeruginosa [30]): 2 µg/mL (≈ 3.66 µM) | MIC90 (Pseudomonas aeruginosa [30]): 8 µg/mL (≈ 14.6 µM) | Activity (Enterobacter cloacae [31]): 1% | MIC50 (Enterobacteriaceae [32]): 0.12 µg/mL (≈ 0.22 µM) | MIC90 (Enterobacteriaceae [32]): 0.5 µg/mL (≈ 0.915 µM) | Activity (Citrobacter [33]): 0% | MIC50 (Escherichia coli [34]): 32 µg/mL (≈ 58.5 µM) | MIC90 (Escherichia coli [34]): > 32 µg/mL | Activity (Pseudomonas aeruginosa [35]): 0% | Activity (Pseudomonas aeruginosa [36]): 18.4% | Activity (Acinetobacter [37]): 5.5% | Activity (Enterobacteriaceae [38]): 0% | Activity (Enterobacteriaceae [39]): 7.6%

C[C@@H](O)[C@H]1C(=O)N2C(C(=O)O)=C(S[C@@H]3CN[C@H](CNS(N)(=O)=O)C3)[C@H](C)[C@H]12 [DORIPENEM]
MIC50 (Staphylococcus aureus): 0.5 µg/mL (≈ 1.19 µM) | MIC90 (Staphylococcus aureus): 8 µg/mL (≈ 19 µM) | MIC50 (Citrobacter [1]): 0.06 µg/mL (≈ 0.143 µM) | MIC90 (Citrobacter [1]): 0.06 µg/mL (≈ 0.143 µM) | Activity (Proteus mirabilis [4]): 100% | Activity (Citrobacter [6]): 99.8% | MIC50 (Serratia marcescens [8]): 0.12 µg/mL (≈ 0.285 µM) | MIC90 (Serratia marcescens [8]): 0.25 µg/mL (≈ 0.595 µM) | Activity (Acinetobacter [9]): 89.1% | MIC50 (Acinetobacter [40]): 0.5 µg/mL (≈ 1.19 µM) | MIC90 (Acinetobacter [40]): 32 µg/mL (≈ 76.1 µM) | Activity (Pseudomonas aeruginosa [13]): 98.5% | Activity (Pseudomonas aeruginosa [14]): 92.3% | MIC50 (Klebsiella pneumoniae [41]): 0.03 µg/mL (≈ 0.0713 µM) | MIC90 (Klebsiella pneumoniae [41]): 0.06 µg/mL (≈ 0.143 µM) | Activity (Serratia marcescens [16]): 98.6% | MIC50 (Pseudomonas aeruginosa [17]): 1 µg/mL (≈ 2.38 µM) | MIC90 (Pseudomonas aeruginosa [17]): 16 µg/mL (≈ 38 µM) | MIC50 (Streptococcus pneumoniae; read-out: MIC50): 0.5 µg/mL (≈ 1.19 µM) | MIC90 (Streptococcus pneumoniae; read-out: MIC90): 1 µg/mL (≈ 2.38 µM) | MIC50 (Serratia marcescens [19]): 0.12 µg/mL (≈ 0.285 µM) | MIC90 (Serratia marcescens [19]): 0.25 µg/mL (≈ 0.595 µM) | MIC50 (Enterobacter cloacae [20]): 0.12 µg/mL (≈ 0.285 µM) | MIC90 (Enterobacter cloacae [20]): 0.25 µg/mL (≈ 0.595 µM) | Activity (Klebsiella pneumoniae [24]): 95.5% | Activity (Acinetobacter [25]): 0% | Activity (Escherichia coli [26]): 100% | Activity (Serratia marcescens [27]): 100% | MIC50 (Pseudomonas aeruginosa [30]): 0.25 µg/mL (≈ 0.595 µM) | MIC90 (Pseudomonas aeruginosa [30]): 1 µg/mL (≈ 2.38 µM) | Activity (Enterobacter cloacae [31]): 99% | MIC50 (Enterobacteriaceae [32]): 0.03 µg/mL (≈ 0.0713 µM) | MIC90 (Enterobacteriaceae [32]): 0.12 µg/mL (≈ 0.285 µM) | MIC50 (Staphylococcus; read-out: MIC50): 0.03 µg/mL (≈ 0.0713 µM) | MIC90 (Staphylococcus; read-out: MIC90): 0.06 µg/mL (≈ 0.143 µM) | MIC50 (Escherichia coli [34]): 0.03 µg/mL (≈ 0.0713 µM) | MIC90 (Escherichia coli [34]): 0.06 µg/mL (≈ 0.143 µM) | MIC (Escherichia coli [42]): ≤ 0.015 µg/mL | MIC50 (Escherichia coli [42]): ≤ 0.015 µg/mL | MIC90 (Escherichia coli [42]): 0.03 µg/mL (≈ 0.0713 µM) | Activity (Pseudomonas aeruginosa [35]): 60.9% | Activity (Enterobacter cloacae [43]): 99.2%
